# Measured values as given in ChEMBL document CHEMBL4428086, “Quassinoids: Viral protein R inhibitors from Picrasma javanica bark collected in Myanmar for HIV infection” (Bioorg Med Chem Lett, 2016).
# Tested on: Human immunodeficiency virus 1
# Experiment: Inhibition of c-myc and His6-tagged full length HIV1 NL4-3 Vpr transfected in human TREx-HeLa cells assessed as cell proliferation at 1.25 uM after 48 hrs in presence of tetracycline by WST-8 assay (reference value: 100 +/- 1%)
# Type: cell-based
# Set-up: scale not given: the % may be the effect or the level left
row,SMILES,Activity
1,COC1=CC[C@@H]2C[C@H]3OC(=O)C[C@H]4C(C)=C(OC)C(=O)[C@H]([C@@]2(C)C1=O)[C@@]34C,157%
2,COC1=CC[C@@H]2C[C@H]3OC(=O)C[C@H]4C(CO)=C(OC)C(=O)[C@H]([C@@]2(C)C1=O)[C@@]34C,148%
3,COC1=C(OC)C(=O)[C@@]2(C)[C@H](C1)C[C@H]1OC(=O)C[C@H]3C(C)=C(OC)C(=O)[C@H]2[C@@]13C,112%
4,COC1=C(C)[C@@H]2CC(=O)O[C@@H]3C[C@H]4CC[C@H](OC)C(=O)[C@]4(C)[C@@H](C1=O)[C@@]32C,165%
5,COC1=CC[C@@H]2C[C@H]3OC(=O)C=C4C(CO)=C(OC)C(=O)[C@H]([C@@]2(C)C1=O)[C@]43C,132%
6,COC1=CC(=O)[C@@H]2C[C@H]3OC(=O)C[C@H]4C(C)=C(OC)C(=O)[C@H]([C@@]2(C)C1=O)[C@@]34C,117%
7,COc1c(C=O)c(O)cc2c1C(=O)c1ccccc1C2=O [DAMNACANTHAL],203%
8,COC1=C(C)[C@@H]2CC(=O)O[C@@H]3C[C@H]4CC[C@H](O)C(=O)[C@]4(C)[C@@H](C1=O)[C@@]32C,156%
9,COC1=C(CO)[C@@H]2CC(=O)O[C@@H]3C[C@H]4CC[C@H](O)C(=O)[C@]4(C)[C@@H](C1=O)[C@@]32C,102%
10,COC1=C(C)[C@]2(O)CC(=O)O[C@@H]3C[C@H]4CC[C@H](O)C(=O)[C@]4(C)[C@@H](C1=O)[C@@]32C,162%
11,COC1=C(OC)C(=O)[C@@]2(C)[C@H](C1)C[C@H]1OC(=O)C[C@H]3C(CO)=C(OC)C(=O)[C@H]2[C@@]13C,139%
12,COC1=CC[C@@H]2C[C@H]3OC(O)C[C@H]4C(C)=C(OC)C(=O)[C@H]([C@@]2(C)C1=O)[C@@]34C (stereo not given in full),170%
13,COC1=CC[C@@H]2C[C@H]3OC(=O)C=C4C(C)=C(OC)C(=O)[C@H]([C@@]2(C)C1=O)[C@]43C,175%
14,COC1=C(OC)C(=O)[C@@]2(C)[C@H](C1)C[C@H]1OC(=O)C[C@@]3(O)C(C)=C(OC)C(=O)[C@H]2[C@@]13C,141%
15,COC1=C[C@@H](O)[C@@H]2C[C@H]3OC(=O)C[C@H]4C(C)=C(OC)C(=O)[C@H]([C@@]2(C)C1=O)[C@@]34C,140%
16,COC1=CC[C@@H]2C[C@H]3OC(=O)C[C@H]4C(C=O)=C(OC)C(=O)[C@H]([C@@]2(C)C1=O)[C@@]34C,131%

# Tested on: Human immunodeficiency virus 1
# Experiment: Inhibition of c-myc and His6-tagged full length HIV1 NL4-3 Vpr transfected in human TREx-HeLa cells assessed as cell proliferation at 2.5 uM after 48 hrs in presence of tetracycline by WST-8 assay (reference value: 100 +/- 1%)
# Type: cell-based
# Set-up: scale not given: the % may be the effect or the level left
row,SMILES,Activity
1,COC1=CC[C@@H]2C[C@H]3OC(=O)C[C@H]4C(C)=C(OC)C(=O)[C@H]([C@@]2(C)C1=O)[C@@]34C,159%
2,COC1=CC[C@@H]2C[C@H]3OC(=O)C[C@H]4C(CO)=C(OC)C(=O)[C@H]([C@@]2(C)C1=O)[C@@]34C,147%
3,COC1=C(OC)C(=O)[C@@]2(C)[C@H](C1)C[C@H]1OC(=O)C[C@H]3C(C)=C(OC)C(=O)[C@H]2[C@@]13C,136%
4,COC1=C(C)[C@@H]2CC(=O)O[C@@H]3C[C@H]4CC[C@H](OC)C(=O)[C@]4(C)[C@@H](C1=O)[C@@]32C,168%
5,COC1=CC[C@@H]2C[C@H]3OC(=O)C=C4C(CO)=C(OC)C(=O)[C@H]([C@@]2(C)C1=O)[C@]43C,140%
6,COC1=CC(=O)[C@@H]2C[C@H]3OC(=O)C[C@H]4C(C)=C(OC)C(=O)[C@H]([C@@]2(C)C1=O)[C@@]34C,155%
7,COc1c(C=O)c(O)cc2c1C(=O)c1ccccc1C2=O [DAMNACANTHAL],218%
8,COC1=C(C)[C@@H]2CC(=O)O[C@@H]3C[C@H]4CC[C@H](O)C(=O)[C@]4(C)[C@@H](C1=O)[C@@]32C,156%
9,COC1=C(CO)[C@@H]2CC(=O)O[C@@H]3C[C@H]4CC[C@H](O)C(=O)[C@]4(C)[C@@H](C1=O)[C@@]32C,137%
10,COC1=C(C)[C@]2(O)CC(=O)O[C@@H]3C[C@H]4CC[C@H](O)C(=O)[C@]4(C)[C@@H](C1=O)[C@@]32C,166%
11,COC1=C(OC)C(=O)[C@@]2(C)[C@H](C1)C[C@H]1OC(=O)C[C@H]3C(CO)=C(OC)C(=O)[C@H]2[C@@]13C,126%
12,COC1=CC[C@@H]2C[C@H]3OC(O)C[C@H]4C(C)=C(OC)C(=O)[C@H]([C@@]2(C)C1=O)[C@@]34C (stereo not given in full),174%
13,COC1=CC[C@@H]2C[C@H]3OC(=O)C=C4C(C)=C(OC)C(=O)[C@H]([C@@]2(C)C1=O)[C@]43C,214%
14,COC1=C(OC)C(=O)[C@@]2(C)[C@H](C1)C[C@H]1OC(=O)C[C@@]3(O)C(C)=C(OC)C(=O)[C@H]2[C@@]13C,138%
15,COC1=C[C@@H](O)[C@@H]2C[C@H]3OC(=O)C[C@H]4C(C)=C(OC)C(=O)[C@H]([C@@]2(C)C1=O)[C@@]34C,138%
16,COC1=CC[C@@H]2C[C@H]3OC(=O)C[C@H]4C(C=O)=C(OC)C(=O)[C@H]([C@@]2(C)C1=O)[C@@]34C,153%

# Tested on: Human immunodeficiency virus 1
# Experiment: Inhibition of c-myc and His6-tagged full length HIV1 NL4-3 Vpr transfected in human TREx-HeLa cells assessed as cell proliferation at 5 uM after 48 hrs in presence of tetracycline by WST-8 assay (reference value: 100 +/- 1%)
# Type: cell-based
# Set-up: scale not given: the % may be the effect or the level left
row,SMILES,Activity
1,COC1=CC[C@@H]2C[C@H]3OC(=O)C[C@H]4C(C)=C(OC)C(=O)[C@H]([C@@]2(C)C1=O)[C@@]34C,163%
2,COC1=CC[C@@H]2C[C@H]3OC(=O)C[C@H]4C(CO)=C(OC)C(=O)[C@H]([C@@]2(C)C1=O)[C@@]34C,150%
3,COC1=C(OC)C(=O)[C@@]2(C)[C@H](C1)C[C@H]1OC(=O)C[C@H]3C(C)=C(OC)C(=O)[C@H]2[C@@]13C,134%
4,COC1=C(C)[C@@H]2CC(=O)O[C@@H]3C[C@H]4CC[C@H](OC)C(=O)[C@]4(C)[C@@H](C1=O)[C@@]32C,173%
5,COC1=CC[C@@H]2C[C@H]3OC(=O)C=C4C(CO)=C(OC)C(=O)[C@H]([C@@]2(C)C1=O)[C@]43C,141%
6,COC1=CC(=O)[C@@H]2C[C@H]3OC(=O)C[C@H]4C(C)=C(OC)C(=O)[C@H]([C@@]2(C)C1=O)[C@@]34C,155%
7,COc1c(C=O)c(O)cc2c1C(=O)c1ccccc1C2=O [DAMNACANTHAL],219%
8,COC1=C(C)[C@@H]2CC(=O)O[C@@H]3C[C@H]4CC[C@H](O)C(=O)[C@]4(C)[C@@H](C1=O)[C@@]32C,158%
9,COC1=C(CO)[C@@H]2CC(=O)O[C@@H]3C[C@H]4CC[C@H](O)C(=O)[C@]4(C)[C@@H](C1=O)[C@@]32C,135%
10,COC1=C(C)[C@]2(O)CC(=O)O[C@@H]3C[C@H]4CC[C@H](O)C(=O)[C@]4(C)[C@@H](C1=O)[C@@]32C,170%
11,COC1=C(OC)C(=O)[C@@]2(C)[C@H](C1)C[C@H]1OC(=O)C[C@H]3C(CO)=C(OC)C(=O)[C@H]2[C@@]13C,127%
12,COC1=CC[C@@H]2C[C@H]3OC(O)C[C@H]4C(C)=C(OC)C(=O)[C@H]([C@@]2(C)C1=O)[C@@]34C (stereo not given in full),178%
13,COC1=CC[C@@H]2C[C@H]3OC(=O)C=C4C(C)=C(OC)C(=O)[C@H]([C@@]2(C)C1=O)[C@]43C,216%
14,COC1=C(OC)C(=O)[C@@]2(C)[C@H](C1)C[C@H]1OC(=O)C[C@@]3(O)C(C)=C(OC)C(=O)[C@H]2[C@@]13C,139%
15,COC1=C[C@@H](O)[C@@H]2C[C@H]3OC(=O)C[C@H]4C(C)=C(OC)C(=O)[C@H]([C@@]2(C)C1=O)[C@@]34C,141%
16,COC1=CC[C@@H]2C[C@H]3OC(=O)C[C@H]4C(C=O)=C(OC)C(=O)[C@H]([C@@]2(C)C1=O)[C@@]34C,152%

# Tested on: Human immunodeficiency virus 1
# Experiment: Inhibition of c-myc and His6-tagged full length HIV1 NL4-3 Vpr transfected in human TREx-HeLa cells assessed as cell proliferation at 1.25 uM after 48 hrs in presence of tetracycline by WST-8 assay
# Type: cell-based
row,SMILES,inhibition
1,COC1=CC[C@@H]2C[C@H]3OC(=O)C=C4C(C)=C(OC)C(=O)[C@H]([C@@]2(C)C1=O)[C@]43C,Dose-dependent effect

# Tested on: HeLa
# Experiment: Cytotoxicity against human TREx-HeLa cells assessed as cell viability at 2.5 uM after 48 hrs by WST-8 assay
# Type: cell-based
row,SMILES,Activity
1,COC1=CC[C@@H]2C[C@H]3OC(=O)C[C@H]4C(C)=C(OC)C(=O)[C@H]([C@@]2(C)C1=O)[C@@]34C,Non-Toxic
2,COC1=CC[C@@H]2C[C@H]3OC(=O)C[C@H]4C(CO)=C(OC)C(=O)[C@H]([C@@]2(C)C1=O)[C@@]34C,Non-Toxic
3,COC1=C(OC)C(=O)[C@@]2(C)[C@H](C1)C[C@H]1OC(=O)C[C@H]3C(C)=C(OC)C(=O)[C@H]2[C@@]13C,Non-Toxic
4,COC1=C(C)[C@@H]2CC(=O)O[C@@H]3C[C@H]4CC[C@H](OC)C(=O)[C@]4(C)[C@@H](C1=O)[C@@]32C,Non-Toxic
5,COC1=CC[C@@H]2C[C@H]3OC(=O)C=C4C(CO)=C(OC)C(=O)[C@H]([C@@]2(C)C1=O)[C@]43C,Non-Toxic
6,COC1=CC(=O)[C@@H]2C[C@H]3OC(=O)C[C@H]4C(C)=C(OC)C(=O)[C@H]([C@@]2(C)C1=O)[C@@]34C,Non-Toxic
7,COc1c(C=O)c(O)cc2c1C(=O)c1ccccc1C2=O [DAMNACANTHAL],Non-Toxic
8,COC1=C(C)[C@@H]2CC(=O)O[C@@H]3C[C@H]4CC[C@H](O)C(=O)[C@]4(C)[C@@H](C1=O)[C@@]32C,Non-Toxic
9,COC1=C(CO)[C@@H]2CC(=O)O[C@@H]3C[C@H]4CC[C@H](O)C(=O)[C@]4(C)[C@@H](C1=O)[C@@]32C,Non-Toxic
10,COC1=C(C)[C@]2(O)CC(=O)O[C@@H]3C[C@H]4CC[C@H](O)C(=O)[C@]4(C)[C@@H](C1=O)[C@@]32C,Non-Toxic
11,COC1=C(OC)C(=O)[C@@]2(C)[C@H](C1)C[C@H]1OC(=O)C[C@H]3C(CO)=C(OC)C(=O)[C@H]2[C@@]13C,Non-Toxic
12,COC1=CC[C@@H]2C[C@H]3OC(O)C[C@H]4C(C)=C(OC)C(=O)[C@H]([C@@]2(C)C1=O)[C@@]34C (stereo not given in full),Non-Toxic
13,COC1=CC[C@@H]2C[C@H]3OC(=O)C=C4C(C)=C(OC)C(=O)[C@H]([C@@]2(C)C1=O)[C@]43C,Non-Toxic
14,COC1=C(OC)C(=O)[C@@]2(C)[C@H](C1)C[C@H]1OC(=O)C[C@@]3(O)C(C)=C(OC)C(=O)[C@H]2[C@@]13C,Non-Toxic
15,COC1=C[C@@H](O)[C@@H]2C[C@H]3OC(=O)C[C@H]4C(C)=C(OC)C(=O)[C@H]([C@@]2(C)C1=O)[C@@]34C,Non-Toxic
16,COC1=CC[C@@H]2C[C@H]3OC(=O)C[C@H]4C(C=O)=C(OC)C(=O)[C@H]([C@@]2(C)C1=O)[C@@]34C,Non-Toxic
